Patent US20210268122A1, “INHIBITION OF S[…] PROTEIN INHIBITORS OF CYSTEINE PROTEASES” (DYVE BIOSCIENCES, INC., priority 2017, published 2021)
Where two headings read alike, the source gives them in different places.

Columns and labels:
[1] = system: LL/2 cells; details: SCID-beige mice, 1×10^6 LL/2 cells intravenously; treatment for 120 days
Experimental: In vivo tests were performed as follows: SCID-beige mice aged 6 weeks were injected intravenously with 1×10^6 LL/2 cells.
The treatment groups were:
Group A (Negative Control): Untreated
Volumes of primary tumors were measured twice weekly.

[2] = system: MDA-MB-231/eGFP cells
[3] = system: MDA-MB-231/eGFP cells; details: Example 14, Ncr nude mice
[4] = system: RIP1-Tag2 mice; details: 100 μL topically once daily
Source text: Trial design was built to assess these primary outcomes: the effects on angiogenesis and tumor growth. Treatment groups randomized as follows:
Each applied topically once daily. Formulations are detailed below:

[5] = system: cysteine cathepsin; details: after intra-peritoneal injections; cited from earlier work
[6] = system: MMTV-PyMT-transgenic mouse model; details: cited from earlier work
[7] = Example 13, Ncr nude mice, gross necropsy at end of 120 day survival experiment
[8] = gross necropsy at end of 120 day survival experiment

Compound | mice surviving to 120 days [1] [%] | % of mice surviving to 120 days ([2]; Example 13, Ncr nude mice, MDA-MB-231/eGFP orthotopic) [%] | metastatic rate, intestinal [2, 7] [%] | metastatic rate, lung [2, 7] [%] | metastatic rate, lymph node [2, 7] [%] | metastatic rate, mesentery [2, 7] [%] | primary tumor growth rates ([2]; Example 13, compared among all active groups B, C, D, E) | % of mice surviving to 120 days ([3]; MDA-MB-231/eGFP orthotopic) [%] | metastatic rate, intestinal [3, 8] [%] | metastatic rate, lung [3, 8] [%] | metastatic rate, lymph node [3, 8] [%] | metastatic rate, mesentery [3, 8] [%] | reduction in the number of angiogenic islets relative to the Control Group ([4]; at 10.5 weeks of age) [%] | reduction of cumulative tumor volume relative to the Control Group ([4]; at 14.5 weeks of age) [%] | cysteine cathepsin activities in mammary and in lungs [5] | cysteine cathepsin activities in pancreas, kidney, and liver [5] | activity against early and advanced mammary cancer stages [6]
O=C([O-])O.[Na+] [Group B (Oral Buffer, Positive Control), sodium bicarbonate] | 20 | 60 | 0 | 8 | 27 | 0 | the same | 60 | 0 | 8 | 27 | 0 |  |  |  |  | 
JPM-OEt |  |  |  |  |  |  |  |  |  |  |  |  | 49 | 67 | not significantly affected | effective inhibition | active
